Where “and” joins values, the source holds several entries; their conditions need not be identical. Identical values can stand only once.
Tested on: transcript levels in tissues (GH/IGF and glucagon/insulin axes, SSTR signalling)
Type: in vivo, cynomolgus monkeys
[1] = pituitary, 0.1 mg/animal/14 day, control 72
[2] = pituitary, 0.1 mg/animal/14 day, control 91
[3] = pituitary, 0.1 mg/animal/14 day, control 198
[4] = pituitary, 0.1 mg/animal/14 day, control 225

cyclo[4-(NH2—C2H4—NH—CO—O)Pro-Phg-DTrp-Lys-Tyr(4-Bzl)-Phe] [SOM230]
ATPase, H+/K+ exchanging, beta polypeptide expression ↓ (fold change) (liver): polypeptide ↓ x2 | Adenylyl cyclase-associated protein expression ↑ (fold change) (liver): ↑ x1.5 | Arginine vasopressine receptor 2 expression ↑ (fold change) (liver): receptor 2 ↑ x2.5 | B lymphoid tyrosine kinase expression ↑ (fold change) (liver): ↑ x3.5 | BCL2-like 1 expression ↓ (fold change) (liver): ↓ x3.5 | Bone-derived GF expression ↑ (fold change) (liver): ↑ x3 | Bruton agammaglobulinemia a tyrosine kinase expression ↑ (fold change) (liver): ↑ x1.5 | Butyrate response factor 2 (EGF-response factor 2) expression ↑ (fold change) (liver): x2 | Ca++ channel, voltage-dependent, P/Q type, alpha 1A subunit expression ↓ (fold change) (liver): subunit ↓ x2.5 | Calcium/calmodulin-dependent protein kinase kinase 2, β expression ↑ (fold change) (liver): ↑ x3 | Calmodulin 2 (phosphorylase kinase, δ) expression ↑ (fold change) (liver): kinase, δ) ↑ x2 | Cdk 5, regulatory subunit 1 expression ↑ (fold change) (liver): subunit 1 ↑ x2.5 | Cdk like-2 expression ↓ (fold change) (liver): x2 | Cdki1A (p21/Cip1) expression ↑ (fold change) (liver): (p21/Cip1) ↑ x6 | Cdki 2D (p19, inhibits CDK4) expression ↓ (fold change) (liver): ↓ x2.5 | Corticosteroid binding globulin precursor expression ↑ (fold change) (liver): precursor ↑ x2 | DAG kinase, α (80 kD) expression ↑ (fold change) (liver): (80 kD) ↑ x3 | DAG kinase, δ (130 kD) expression ↑ (fold change) (liver): (130 kD) ↑ x1.5 | Death-associated protein 6 expression ↓ (fold change) (liver): ↓ x2.5 | Dopamine receptor D2 expression ↑ (fold change) (liver): receptor D2 ↑ x3.5 | Dopamine receptor D3 expression ↑ (fold change) (liver): receptor D3 ↑ x2 | EGF (β-urogastrone) expression ↓ (fold change) (liver): urogastrone) ↓ x2.5 | EGF-like repeats and discoidin I-like domains 3 expression ↓ (fold change) (liver): domains 3 ↓ x1.5 | EGFR (avian erythroblastic leukemia viral (v-erb-b) oncogene homolog) expression ↑ (fold change) (liver): homolog) ↑ x2 | FGFR 2 (bacteria-expressed kinase, keratinocyte growth factor receptor, craniofacial dysplasia) expression ↑ (fold change) (liver): dysplasia) ↑ x2 | Fas-activated serine/threonine kinase expression ↑ (fold change) (liver): kinase ↑ x1.5 | Fms-related tyrosine kinase 1(VEGF/vascular permeability factor receptor) expression ↓ (fold change) (liver): receptor) ↓ x1.5 | GABA (A) receptor, γ2 precursor expression ↑ (fold change) (liver): precursor ↑ x4 | GABA(A) receptor-associated protein expression ↑ (fold change) (liver): protein ↑ x1.5 | GCSF expression ↑ (fold change) (liver): GCSF ↑ x3.5 | GFR-bound protein 2 expression ↓ (fold change) (liver): protein 2 ↓ x2.5 | Gene expression (AvgDiff): GR (liver): 80 | Gene expression (AvgDiff): IGF-2 (liver): 269 | Gene expression (AvgDiff): IGFBP2 (liver): 4,476 | Gene expression (AvgDiff): Insulin promoter factor 1, homeodomain transcription factor (liver): 42 | Glucacon receptor expression ↑ (fold change) (liver): ↑ x5 | Glutamate receptor, metabotropic 4 expression ↑ (fold change) (liver): ↑ x1.5 | Glycosylphosphatidylinositol specific phospholipase D1 expression ↓ (fold change) (liver): ↓ x1.5 | Growth differentiation factor 1 expression ↑ (fold change) (liver): 1 ↑ x3 | IFN regulatory factor 5 expression ↑ (fold change) (liver): factor 5 ↑ x2.5 | IFN-induced leucine zipper protein expression ↑ (fold change) (liver): protein ↑ x1.5 | IFN-inducible RNA-dependent protein kinase expression ↑ (fold change) (liver): protein kinase ↑ x4 | IFN-related developmental regulator 2 expression ↓ (fold change) (liver): regulator 2 ↓ x1.5 | IFN-stimulated protein, 15 kDa expression ↓ (fold change) (liver): protein, 15 kDa ↓ x2 | IFNγ responsive transcript expression ↑ (fold change) (liver): transcript ↑ x1.5 | IGF-2 expression ↓ (fold change) (liver): IGF-2 ↓ x2.5 | IGFBP2 expression ↑ (fold change) (liver): IGFBP2 ↑ x2 | IL2 R, γ chain, precursor expression ↑ (fold change) (liver): precursor ↑ x2.5 | IP 5-phosphatase expression ↑ (fold change) (liver): ↑ x2 | Insulin promoter factor 1, homeodomain transcription factor expression ↓ (fold change) (liver): ↓ x1.5 | Natriuretic peptide receptor A/guanylate cyclase A (atrionatriuretic peptide receptor A) expression ↑ (fold change) (liver): ↑ x6 | Nck, Ash and PLC γ binding protein NAP4 expression ↑ (fold change) (liver): NAP4 ↑ x3.5 | PDGF, α polypeptide expression ↑ (fold change) (liver): polypeptide ↑ x1.5 | PDGFR, α polypeptide expression ↑ (fold change) (liver): polypeptide ↑ x2 | PI transfer protein expression ↑ (fold change) (liver): ↑ x3.5 | PI transfer protein, β expression ↓ (fold change) (liver): β ↓ x1.5 | PKC substrate 80K-H expression ↑ (fold change) (liver): 80K-H ↑ x1.5 | PKC, ι expression ↓ (fold change) (liver): PKC, ι ↓ x1.5 | PLA2, group IIA (platelets, synovial fluid) expression ↑ (fold change) (liver): fluid) ↑ x5.5 | PLC, γ1 (formerly subtype 148) expression ↑ (fold change) (liver): subtype 148) ↑ x2 | Rb 1 (including osteosarcoma) expression ↓ (fold change) (liver): ↓ x2 | Rb binding protein expression ↑ (fold change) (liver): ↑ x2.5 | Rb-like 2 (p130) expression ↑ (fold change) (liver): x3 | Receptor (calcitonin) activity modifying protein 1 precursor expression ↑ (fold change) (liver): precursor ↑ x1.5 | Solute carrier family 9 (sodium/hydrogen exchanger), isoform 3 regulatory factor 1 expression ↑ (fold change) (liver): ↑ x11.5 | Solute carrier family 11 (Na+/phosphate symporters), member 1 expression ↑ (fold change) (liver): member 1 ↑ x2.5 | TGF, β1 expression ↓ (fold change) (liver): TGF, β1 ↓ x1.5 | TGFβ activated kinase-binding protein 1 expression ↑ (fold change) (liver): protein 1 ↑ x2.5 | TGFβR III (betaglycan, 300kδ) expression ↓ (fold change) (liver): ↓ x2 | THR interacting protein 15 expression ↑ (fold change) (liver): protein 15 ↑ x1.5 | THR sulfo transferase expression ↑ (fold change) (liver): transferase ↑ x2.5 | TNF (ligand) superfamily, member 10 expression ↑ (fold change) (liver): member 10 ↑ x1.5 | TNF-α converting enzyme expression ↓ (fold change) (liver): enzyme ↓ x2 | δ sleep inducing peptide, immunoreactor expression ↑ (fold change) (liver): ↑ x2.5 | PP 1, regulatory (inhibitor) subunit 5 AvgDiff (pituitary, 0.1 mg/animal/14 day, control 20): 75 | SSTR3 AvgDiff (pituitary, 0.1 mg/animal/14 day, control 22): 57 | Cell division cycle 25B AvgDiff (pituitary, 0.1 mg/animal/14 day, control 40): 162 | GLUR 2, precursor AvgDiff (pituitary, 0.1 mg/animal/14 day, control 42): 59 | BCL2-antagonist of cell death AvgDiff (pituitary, 0.1 mg/animal/14 day, control 44): 69 | PTP, receptor type, T AvgDiff (pituitary, 0.1 mg/animal/14 day, control 58): 101 | Putative Ca++ transporting ATPase AvgDiff (pituitary, 0.1 mg/animal/14 day, control 61): 101 | K+ voltage-gated channel, Shab-related subfamily, member 1 AvgDiff (pituitary, 0.1 mg/animal/14 day, control 66): 22 | PI-3-kinase, catalytic, α polypeptide AvgDiff [1]: 21 | RAB 5C, member RAS oncogene family AvgDiff [1]: 162 | Cdk inhibitor 2C (p18, inhibits CDK4) AvgDiff (pituitary, 0.1 mg/animal/14 day, control 81): 184 | ATPase, Na+/K+ transporting, α 2 (+) polypeptide AvgDiff (pituitary, 0.1 mg/animal/14 day, control 86): 184 | PI-3-kinase, catalytic, δ polypeptide AvgDiff [2]: 34 | S-phase response (cyclin-related) AvgDiff [2]: 129 | PLC, γ 1 (formerly subtype 148) AvgDiff (pituitary, 0.1 mg/animal/14 day, control 111): 40 | SHB adaptor protein (a Src homology 2 protein) AvgDiff (pituitary, 0.1 mg/animal/14 day, control 112): 38 | PI transfer protein, β AvgDiff (pituitary, 0.1 mg/animal/14 day, control 125): 42 | ATPase, H+/K+ exchanging, α polypeptide AvgDiff (pituitary, 0.1 mg/animal/14 day, control 128): 20 | Phosphatase and tensin homolog (mutated in multiple advanced cancers 1) AvgDiff (pituitary, 0.1 mg/animal/14 day, control 129): 36 | K+ channel, subfamily K, member 3 (TASK) AvgDiff (pituitary, 0.1 mg/animal/14 day, control 132): 26 | Rab geranylgeranyltransferase, α subunit AvgDiff (pituitary, 0.1 mg/animal/14 day, control 164): 104 | MAPKKK5 AvgDiff (pituitary, 0.1 mg/animal/14 day, control 171): 278 | Neuroblastoma-amplified protein AvgDiff (pituitary, 0.1 mg/animal/14 day, control 178): 237 | Cyclin D3 AvgDiff (pituitary, 0.1 mg/animal/14 day, control 187): 338 | Cdk inhibitor 2D (p19, inhibits CDK4) AvgDiff [3]: 99 | Cyclin F AvgDiff [3]: 74 | BCL2-associated athanogene AvgDiff (pituitary, 0.1 mg/animal/14 day, control 216): 318 | Core-binding factor, runt domain, α subunit 2; translocated to, 1; cyclin D-related AvgDiff [4]: 491 | Forkhead box H1 AvgDiff [4]: 117 | Rab geranygeranyltransferase, β subunit AvgDiff (pituitary, 0.1 mg/animal/14 day, control 230): 284 | Bax gamma AvgDiff (pituitary, 0.1 mg/animal/14 day, control 258): 326 | ATPase, Na+/K+ transporting, β 3 polypeptide AvgDiff (pituitary, 0.1 mg/animal/14 day, control 292): 610 | IP-4-phosphatase, type 1, isoform b AvgDiff (pituitary, 0.1 mg/animal/14 day, control 296): 177 | BCL2/adenovirus E1B 19kD-interacting protein 3 AvgDiff (pituitary, 0.1 mg/animal/14 day, control 342): 458 | Dual specificity phosphatase 8 AvgDiff (pituitary, 0.1 mg/animal/14 day, control 493): 170 | Forkhead box O3A AvgDiff (pituitary, 0.1 mg/animal/14 day, control 497): 257 | Programmed cell death 6 AvgDiff (pituitary, 0.1 mg/animal/14 day, control 504): 635 | PKC inhibitor AvgDiff (pituitary, 0.1 mg/animal/14 day, control 2,351): 3,333 and 3,332 | ATPase, Na+/K+ transporting, β1 polypeptide expression ↑ (fold change) (spleen): polypeptide ↑ x2.5 | Adrenergic, α-2C-, receptor expression ↓ (fold change) (spleen): ↓ x2 | Arginine vasopressine receptor 1B expression ↑ (fold change) (spleen): receptor 1B ↑ x2 | Bcl-2 binding component 3 expression ↑ (fold change) (spleen): ↑ x2.5 | Ca++ channel, voltage-dependent, α2/δ subunit 1 expression ↑ (fold change) (spleen): α2/δ subunit 1 ↑ x2 | Ca++ channel, voltage-dependent, α2/δ subunit 2 expression ↑ (fold change) (spleen): ↑ x1.5

Reference: patent US20130040882A1, “USE OF FIBROBLAST GROWTH FACTOR FRAGMENTS” (NOVARTIS AG, priority 2003, published 2013)
